Experimental data: the supplement of paper PMC10733146

Experiments:
Assay in all cases: viability relative to DMSO control (fraction); higher = less drug effect (more viable cells)
Conditions in all cases: 48 h
Ribociclib = compound: CN(C)C(=O)c1cc2cnc(Nc3ccc(N4CCNCC4)cn3)nc2n1C1CCCC1 [Ribociclib]
Method in brief: (§1)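 In 384-well plates with compounds pre-plated at five concentrations (one well per concentration), primary mononuclear tumour cells were plated at 4 × 10^4 cells per well. The cells came from blood or bone marrow by Ficoll isolation or from processed lymph node, and were used fresh or cryopreserved. Culture ran for 48 h at 37 °C and 5% CO2 in RPMI-1640 containing penicillin/streptomycin, L-glutamine and human serum. Viability was read as CellTiter-Glo luminescence, normalised to the median of 16 inner DMSO wells.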

Cladribine = compound: Nc1nc(Cl)nc2c1ncn2[C@H]1C[C@H](O)[C@@H](CO)O1 [Cladribine]
Method in brief: as §1

[1] = compound: OCc1ccc(-c2ccc(-c3ccc(CO)s3)o2)s1
Method in brief: as §1

Birinapant = compound: CC[C@H](NC(=O)[C@H](C)NC)C(=O)N1C[C@@H](O)C[C@H]1Cc1c(-c2[nH]c3cc(F)ccc3c2C[C@@H]2C[C@H](O)CN2C(=O)[C@H](CC)NC(=O)[C@H](C)NC)[nH]c2cc(F)ccc12 [Birinapant]
Method in brief: as §1

Vorinostat = compound: O=C(CCCCCCC(=O)Nc1ccccc1)NO [Vorinostat]
Method in brief: as §1

8-Azaguanin = compound: Nc1nc2n[nH]nc2c(=O)[nH]1 [8-Azaguanin]
Method in brief: as §1

ERK5-IN-1 = compound: CCOc1cc(C(=O)N2CCC(N3CCN(C)CC3)CC2)ccc1Nc1ncc2c(n1)N(C1CCCC1)c1ccccc1C(=O)N2C [ERK5-IN-1]
Method in brief: as §1

Obatoclax mesylate = compound: COC1=CC(c2cc3ccccc3[nH]2)=N/C1=C\c1[nH]c(C)cc1C [Obatoclax mesylate]
Method in brief: as §1

Tozasertib = compound: Cc1cc(Nc2cc(N3CCN(C)CC3)nc(Sc3ccc(NC(=O)C4CC4)cc3)n2)n[nH]1 [Tozasertib]
Method in brief: as §1

Pralatrexate = compound: C#CCC(Cc1cnc2nc(N)nc(N)c2n1)c1ccc(C(=O)N[C@@H](CCC(=O)O)C(=O)O)cc1 [Pralatrexate]
Method in brief: as §1

AG-221 (Enasidinib) = compound: CC(C)(O)CNc1nc(Nc2ccnc(C(F)(F)F)c2)nc(-c2cccc(C(F)(F)F)n2)n1 [AG-221 (Enasidinib)]
Method in brief: as §1

AZD7762 = compound: NC(=O)Nc1cc(-c2cccc(F)c2)sc1C(=O)N[C@H]1CCCNC1 [AZD7762]
Method in brief: as §1

Pacritinib = compound: C1=N/C2=N/c3ccc(OCCN4CCCC4)c(c3)COC/C=C/COCc3cccc(c3)C(=C1)N2 [Pacritinib]
Method in brief: as §1

BEZ235 = compound: Cn1c(=O)n(-c2ccc(C(C)(C)C#N)cc2)c2c3cc(-c4cnc5ccccc5c4)ccc3ncc21 [BEZ235]
Method in brief: as §1

Iniparib = compound: NC(=O)c1ccc(I)c([N+](=O)[O-])c1 [Iniparib]
Method in brief: as §1

primary B-PLL patient cells (S016) showed a viability (Ribociclib; 0.024 µM) of 1.01, a viability (Ribociclib; 0.12 µM) of 1.03 and a viability (Ribociclib; 0.6 µM) of 1.09. For the same test system, the viability (Ribociclib; 3 µM) was 1.05, the viability (Ribociclib; 15 µM) was 0.84 and the viability (Cladribine; 0.024 µM) was 0.855. The viability (Cladribine; 0.12 µM) was 0.645, the viability (Cladribine; 0.6 µM) was 0.252 and the viability (Cladribine; 3 µM) was 0.105. It also gave a viability (Cladribine; 15 µM) of 0.0548, a viability ([1]; 0.024 µM) of 0.989 and a viability ([1]; 0.12 µM) of 1.07. The viability ([1]; 0.6 µM) was 0.892, the viability ([1]; 3 µM) was 0.928 and the viability ([1]; 15 µM) was 0.402. It also gave a viability (Birinapant; 0.0008 µM) of 0.974, a viability (Birinapant; 0.004 µM) of 0.97 and a viability (Birinapant; 0.02 µM) of 0.973. It also gave a viability (Birinapant; 0.1 µM) of 1.06, a viability (Birinapant; 0.5 µM) of 1.19 and a viability (Vorinostat; 0.016 µM) of 0.995. It also gave a viability (Vorinostat; 0.08 µM) of 0.87, a viability (Vorinostat; 0.4 µM) of 0.578 and a viability (Vorinostat; 2 µM) of 0.169. It also gave a viability (Vorinostat; 10 µM) of 0.0399, a viability (8-Azaguanin; 0.032 µM) of 0.998 and a viability (8-Azaguanin; 0.16 µM) of 1.02. It also gave a viability (8-Azaguanin; 0.8 µM) of 0.731, a viability (8-Azaguanin; 4 µM) of 0.35 and a viability (8-Azaguanin; 20 µM) of 0.118. The viability (ERK5-IN-1; 0.024 µM) was 1.03, the viability (ERK5-IN-1; 0.12 µM) was 0.97 and the viability (ERK5-IN-1; 0.6 µM) was 1.02. It also gave a viability (ERK5-IN-1; 3 µM) of 0.853, a viability (ERK5-IN-1; 15 µM) of 0.548 and a viability (Obatoclax mesylate; 0.024 µM) of 1. It also gave a viability (Obatoclax mesylate; 0.12 µM) of 0.755, a viability (Obatoclax mesylate; 0.6 µM) of 0.467 and a viability (Obatoclax mesylate; 3 µM) of 0.31. For the same test system, the viability (Obatoclax mesylate; 15 µM) was 0.0716, the viability (Tozasertib; 0.024 µM) was 0.856 and the viability (Tozasertib; 0.12 µM) was 0.74. It also gave a viability (Tozasertib; 0.6 µM) of 0.688, a viability (Tozasertib; 3 µM) of 0.619 and a viability (Tozasertib; 15 µM) of 0.737. The viability (Pralatrexate; 0.024 µM) was 0.982, the viability (Pralatrexate; 0.12 µM) was 0.945 and the viability (Pralatrexate; 0.6 µM) was 0.979. The viability (Pralatrexate; 3 µM) was 0.909, the viability (Pralatrexate; 15 µM) was 1 and the viability (AG-221 (Enasidinib); 0.024 µM) was 0.973. The viability (AG-221 (Enasidinib); 0.12 µM) was 0.917, the viability (AG-221 (Enasidinib); 0.6 µM) was 1.19 and the viability (AG-221 (Enasidinib); 3 µM) was 0.892. For the same test system, the viability (AG-221 (Enasidinib); 15 µM) was 0.928, the viability (AZD7762; 0.024 µM) was 0.508 and the viability (AZD7762; 0.12 µM) was 0.619. It also gave a viability (AZD7762; 0.6 µM) of 0.702, a viability (AZD7762; 3 µM) of 0.758 and a viability (AZD7762; 15 µM) of 0.358. It also gave a viability (Pacritinib; 0.024 µM) of 0.979, a viability (Pacritinib; 0.12 µM) of 1.07 and a viability (Pacritinib; 0.6 µM) of 0.884. For the same test system, the viability (Pacritinib; 3 µM) was 0.692, the viability (Pacritinib; 15 µM) was 0.0511 and the viability (BEZ235; 0.024 µM) was 0.837. The viability (BEZ235; 0.12 µM) was 0.867, the viability (BEZ235; 0.6 µM) was 0.774 and the viability (BEZ235; 3 µM) was 0.865. For the same test system, the viability (BEZ235; 15 µM) was 0.387, the viability (Iniparib; 0.024 µM) was 1.1 and the viability (Iniparib; 0.12 µM) was 1.01. It also gave a viability (Iniparib; 0.6 µM) of 0.996, a viability (Iniparib; 3 µM) of 0.921 and a viability (Iniparib; 15 µM) of 0.882.

With primary BL patient cells (S005) the viability (Ribociclib; 0.024 µM) was 1.06, the viability (Ribociclib; 0.12 µM) was 1.41 and the viability (Ribociclib; 0.6 µM) was 1.08. The viability (Ribociclib; 3 µM) was 0.993, the viability (Ribociclib; 15 µM) was 1.15 and the viability (Cladribine; 0.024 µM) was 0.965. It also gave a viability (Cladribine; 0.12 µM) of 1.08, a viability (Cladribine; 0.6 µM) of 0.933 and a viability (Cladribine; 3 µM) of 0.912. For the same test system, the viability (Cladribine; 15 µM) was 0.83, the viability ([1]; 0.024 µM) was 0.798 and the viability ([1]; 0.12 µM) was 0.926. It also gave a viability ([1]; 0.6 µM) of 0.821, a viability ([1]; 3 µM) of 0.931 and a viability ([1]; 15 µM) of 0.616. The viability (Birinapant; 0.0008 µM) was 1.07, the viability (Birinapant; 0.004 µM) was 0.726 and the viability (Birinapant; 0.02 µM) was 0.672. It also gave a viability (Birinapant; 0.1 µM) of 1.14, a viability (Birinapant; 0.5 µM) of 0.631 and a viability (Vorinostat; 0.016 µM) of 0.977. It also gave a viability (Vorinostat; 0.08 µM) of 0.869, a viability (Vorinostat; 0.4 µM) of 0.863 and a viability (Vorinostat; 2 µM) of 0.595. The viability (Vorinostat; 10 µM) was 0.689, the viability (8-Azaguanin; 0.032 µM) was 0.991 and the viability (8-Azaguanin; 0.16 µM) was 1.05. It also gave a viability (8-Azaguanin; 0.8 µM) of 0.978, a viability (8-Azaguanin; 4 µM) of 0.812 and a viability (8-Azaguanin; 20 µM) of 0.658. It also gave a viability (ERK5-IN-1; 0.024 µM) of 1.07, a viability (ERK5-IN-1; 0.12 µM) of 1.09 and a viability (ERK5-IN-1; 0.6 µM) of 1. The viability (ERK5-IN-1; 3 µM) was 0.89, the viability (ERK5-IN-1; 15 µM) was 0.631 and the viability (Obatoclax mesylate; 0.024 µM) was 0.895. It also gave a viability (Obatoclax mesylate; 0.12 µM) of 0.821, a viability (Obatoclax mesylate; 0.6 µM) of 0.589 and a viability (Obatoclax mesylate; 3 µM) of 0.465. The viability (Obatoclax mesylate; 15 µM) was 0.209, the viability (Tozasertib; 0.024 µM) was 0.826 and the viability (Tozasertib; 0.12 µM) was 1.33. It also gave a viability (Tozasertib; 0.6 µM) of 0.802, a viability (Tozasertib; 3 µM) of 1.17 and a viability (Tozasertib; 15 µM) of 0.568. It also gave a viability (Pralatrexate; 0.024 µM) of 0.791, a viability (Pralatrexate; 0.12 µM) of 0.726 and a viability (Pralatrexate; 0.6 µM) of 0.662. The viability (Pralatrexate; 3 µM) was 0.709, the viability (Pralatrexate; 15 µM) was 0.698 and the viability (AG-221 (Enasidinib); 0.024 µM) was 0.867. It also gave a viability (AG-221 (Enasidinib); 0.12 µM) of 1.43, a viability (AG-221 (Enasidinib); 0.6 µM) of 0.806 and a viability (AG-221 (Enasidinib); 3 µM) of 1.26. It also gave a viability (AG-221 (Enasidinib); 15 µM) of 1.35, a viability (AZD7762; 0.024 µM) of 0.806 and a viability (AZD7762; 0.12 µM) of 0.848. The viability (AZD7762; 0.6 µM) was 0.717, the viability (AZD7762; 3 µM) was 0.773 and the viability (AZD7762; 15 µM) was 0.622. It also gave a viability (Pacritinib; 0.024 µM) of 1, a viability (Pacritinib; 0.12 µM) of 1 and a viability (Pacritinib; 0.6 µM) of 0.879. The viability (Pacritinib; 3 µM) was 0.657, the viability (Pacritinib; 15 µM) was 0.241 and the viability (BEZ235; 0.024 µM) was 1.28. For the same test system, the viability (BEZ235; 0.12 µM) was 0.972, the viability (BEZ235; 0.6 µM) was 1.12 and the viability (BEZ235; 3 µM) was 0.756. The viability (BEZ235; 15 µM) was 0.544, the viability (Iniparib; 0.024 µM) was 0.983 and the viability (Iniparib; 0.12 µM) was 0.913. For the same test system, the viability (Iniparib; 0.6 µM) was 0.829, the viability (Iniparib; 3 µM) was 0.849 and the viability (Iniparib; 15 µM) was 0.626.
